Laboratory results reported in the METLIN SMRT retention time set (Domingo-Almenara et al. 2019).

Experiment: gradient 5% acetonitrile 3 min, to 50% in 2 min, to 85% in 15 min, held 3 min, 100 µL/min
Conditions: column: Zorbax Extend-C18 2.1 x 50 mm; eluents: water / acetonitrile, 0.1% formic acid
Method in brief: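 Each retention time is based on an adduct peak selected computationally and verified by manual inspection. Measurements used HPLC–quadrupole time-of-flight mass spectrometry in positive and negative ionization mode on mixtures of ~100 pure standards. Chromatography ran on a Zorbax Extend-C18 column (2.1 × 50 mm, 1.8 μm) at 100 μL/min with water and acetonitrile, each containing 0.1% formic acid, and dead and dwell volumes of 40 μL and 900 μL.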

RP-LC retention time | SMILES
789 s | CCC(=O)N1CCc2cc(N3CC(C(=O)Nc4ccc(SC)cc4)CC3=O)ccc21 (stereo unspecified)
612 s | O=C(Cn1c(=O)n(C2CCCCC2)c2ncccc21)NCCCN1CCOCC1
578 s | O=C(C1CCCO1)N1CCC(Cc2nncn2CC2CC2)CC1 (stereo unspecified)
671 s | O=C(c1ccc(-c2cccnc2)nc1)N1CCN(c2ccc(F)cc2)CC1
655 s | O=C(CSc1nc2ccsc2c(=O)n1-c1ccccc1)Nc1ncn[nH]1
643 s | Cc1ccnc(NC(=O)C2CCCN(c3ncnc4c3nc3n4CCCCC3)C2)c1 (stereo unspecified)
650 s | CSc1cccc(NC(=O)N2CCN(c3cc(C)nc(N4CCOCC4)n3)CC2)c1
973 s | CCc1nn2c(CNS(=O)(=O)c3cccc(C)c3)c(-c3ccccc3)nc2s1
678 s | CCn1c(C2CCN(C(=O)c3ccc(Br)o3)C2)nc2cccnc21 (stereo unspecified)
672 s | COc1ccc(CNC(=O)C2CCN(Cc3cn(C)c4ccc(OC)cc34)CC2)c(OC)c1
656 s | Cc1ccc(S(=O)(=O)N2CCN(CCc3cn(C)c4ncccc34)CC2)cc1C
710 s | O=C1NCCC1Cc1ccc(C(F)(F)F)cc1 (stereo unspecified)
807 s | COc1cc(OC)cc(C(=O)N2CCCC2COc2ccc(C(=O)N3CCCC3)cc2)c1 (stereo unspecified)
1300 s | CC(C)Cn1c(=O)c(-c2ccc(C(=O)NCCC3=CCCCC3)cc2)nc2ccccc21
569 s | CCOc1ccc(C(O)CN2CCN(C3CCCCC3)CC2)cc1 (stereo unspecified)
845 s | Cc1ccc(C)c(NC(=O)C2CCCN2S(=O)(=O)c2cc3c(cc2C)NC(=O)C(C)O3)c1 (stereo unspecified)
975 s | CC1(C)CC(=O)C2=C(C1)N(CC1CCCO1)C(=O)C2(NC(=O)c1ccc(Cl)cc1)C(F)(F)F (stereo unspecified)
692 s | O=C(NCc1ccccc1C(F)(F)F)c1ccc2ncnc(N3CCCC3)c2c1
881 s | CN(C)c1cccc(C(=O)N2CCN(C(=O)c3nnn4c3COC(c3ccc(Cl)cc3)C4)CC2)c1 (stereo unspecified)
820 s | CN1c2cc(Cl)ccc2C(=O)NC12CCN(C(=O)NCc1ccc(F)cc1)CC2
945 s | O=C(NCc1ccco1)c1cnn2c(-c3ccc(Cl)cc3)ccnc12
752 s | Cc1noc2nc(C)n(CC(=O)Nc3ccccc3F)c(=O)c12

RP-LC retention time | SMILES
740 s | O=C(c1nc(-c2cnccn2)no1)N1CCc2ccccc21
924 s | CC(C)c1cc(C(F)(F)F)nc(NNc2nc(C(C)C)cc(C(F)(F)F)n2)n1
1170 s | O=c1c2cc3c(cc2nc(SCc2nc(-c4cccc(F)c4)no2)n1-c1ccc(F)cc1)OCO3
749 s | CCc1nc(-c2csc(S(=O)(=O)N3CCC(C(=O)Nc4cc(C)ccn4)CC3)c2)no1
1100 s | COc1ccc(CN2C=C(C(=O)OCc3cccc(OC)c3)C(C)=NS2(=O)=O)cc1
658 s | CCC1CN2C=NC(N3CCN(C(=O)Nc4cc(C)ccc4OC)CC3)=CC2=N1 (stereo unspecified)
654 s | COc1cc(OC2CCN(C)CC2)ccc1Nc1ncc2c(n1)n(C1CCCC1)c(=O)n2C
860 s | O=C1CC(c2nc(-c3ccccc3F)no2)CN1c1ccc2c(c1)OCCO2 (stereo unspecified)
1120 s | Cc1ccc(NC(=O)N2CCCC(CC(=O)N3CCC(Cc4ccccc4)CC3)C2)cc1 (stereo unspecified)
725 s | O=C(NCc1csc(C2CCN(C(=O)c3ccc(Cl)cc3)CC2)n1)C1CC1
651 s | NC(N)=Nc1nc2ccc([N+](=O)[O-])cc2[nH]1
871 s | CCc1ccc(CNC(=O)C2CCCN(c3ncnc4c3oc3ccccc34)C2)cc1 (stereo unspecified)
772 s | CCOc1ccc(OCC)c(NC(=O)C2CC(=O)N(c3cccc(NC(C)=O)c3)C2)c1 (stereo unspecified)
895 s | COc1ccc(CCc2nc3nccc(-c4cc(OC)c(OC)c(OC)c4)n3n2)cc1
908 s | O=C(Nc1cccc(F)c1)C1CCCN(c2ccc3cc(S(=O)(=O)N4CCCCC4)ccc3n2)C1 (stereo unspecified)
888 s | COc1ccc(Cn2cc(S(=O)(=O)N3CCCCC3)ccc2=O)cc1
786 s | CC1=C(c2cccc(Cl)c2)S(=O)(=O)N=C1N1CCCN(C(=O)C(C)C)CC1
961 s | COc1ccc(CNC(=O)C2(C)CCN(S(=O)(=O)c3ccc(Br)s3)CC2)cc1
565 s | CCn1cc(CN2CCCC(Cn3cc(COC)nn3)C2)c2ccccc21 (stereo unspecified)
730 s | CCOC(=O)C1CCc2sc(NC(=O)C3COCC(=O)N3Cc3ccccc3)nc21 (stereo unspecified)
1150 s | Cc1ccc(-c2noc(Cn3c(=O)n(-c4ccc(Cl)cc4)c(=O)c4sccc43)n2)cc1C
659 s | Cn1ncc(N2CCC(C(=O)N3CCN(C(=O)C4COc5ccccc5O4)CC3)CC2)cc1=O (stereo unspecified)

RP-LC retention time | SMILES
803 s | O=C(CN1C(=O)CCCc2cc(S(=O)(=O)N3CCCC3)ccc21)Nc1ccccc1
761 s | Cc1noc2ncn(CC(=O)Nc3ccccc3Br)c(=O)c12
1070 s | CCc1nc(-c2csc(S(=O)(=O)N3CCCC(C(=O)Nc4cccc(F)c4)C3)c2)no1 (stereo unspecified)
843 s | Cc1ccc(-c2cn3c(CC(=O)NCc4ccc(F)cc4)csc3n2)cc1C
881 s | COc1ccc(-c2noc(C3CCCN3C(=O)c3ccc(N(C)C)cc3)n2)cc1OC (stereo unspecified)
945 s | CCOC(=O)c1cnc2nc(-c3ccccc3Cl)nn2c1C
766 s | O=C(c1ccc2cc[nH]c2c1)N1C[C@@H]2C[C@H]1C[C@@H]2NS(=O)(=O)c1ccccc1
1180 s | Cc1ccc(-c2coc(-c3ccc(NC(=O)NC4CCCC4)cc3)n2)c(C)c1
830 s | Cc1ccc(CNc2nnc(-c3nnc(C)o3)c3ccccc23)cc1
559 s | COc1cc(C2CC(=O)c3cnc(N4CCN(CCO)CC4)nc3C2)cc(OC)c1OC (stereo unspecified)
1140 s | CCCOc1ccc(CNC(=O)c2snc(C(=O)NCc3cccc(OC)c3)c2N)cc1
981 s | Cc1cc(OCC(=O)Nc2ccc(C(C)C)cc2)nc(N2CCN(c3ccccc3)CC2)n1
617 s | CC(=O)N1c2ccc(S(=O)(=O)N3CCC(C(=O)Nc4cccnc4)CC3)cc2CC1C (stereo unspecified)
751 s | CC1CN(Cc2nc3c(c(=O)n(C)c(=O)n3C)n2Cc2ccccc2Cl)CC(C)O1 (stereo unspecified)
795 s | Cc1csc(C(=O)NCC(O)c2ccc(C(F)(F)F)cc2)c1 (stereo unspecified)
1060 s | CCOc1cc(-c2nc(C3CC(=O)N(c4ccc(OC)c(OC)c4)C3)no2)cc(OCC)c1OCC (stereo unspecified)
815 s | CCOC(=O)c1c(-c2cccs2)csc1NC(=O)CSc1ncn[nH]1
760 s | Cc1ccc(CN2C[C@@H]3C(=O)N(CCc4ccccc4)C(=O)[C@@H]3C2)cc1
1190 s | CC(C)(C)c1ccc(/C=C/C(=O)Nc2ccc3c(c2)OCCO3)cc1
962 s | CCOC(=O)c1sc(NC(=O)C2CCCCN2S(=O)(=O)c2cccs2)cc1C (stereo unspecified)
833 s | COC(=O)C1=C(C)NC(C)=C(C(=O)OC)C1c1cccc(NC(=O)NCCCN2CCC(c3cccc(OC)c3)CC2)c1
820 s | CC(=O)Nc1nsc(N2CCC(C(=O)N3CCN(c4cc(C)ccc4C)CC3)CC2)n1

RP-LC retention time | SMILES
810 s | COc1ccccc1C1(CNC(=O)Nc2ccccc2F)CCOCC1
761 s | CCCS(=O)(=O)N1CCC(Oc2nccnc2N2CCOCC2)C1 (stereo unspecified)
1150 s | Cc1ccc(Sc2nccnc2N2CCCC(C(=O)Nc3ccc(C)cc3C)C2)cc1 (stereo unspecified)
599 s | CCN1CCN(c2cc(C)c3cc(NC(=O)c4cc(-c5ccco5)nc5ccccc45)ccc3n2)CC1
1260 s | COc1nc2ccccc2nc1N1CCCC(C(=O)Nc2ccc(Br)c(C)c2C)C1 (stereo unspecified)
936 s | O=C(OCn1nnc2ccccc2c1=O)c1ccc(S(=O)(=O)N2CCCCC2)cc1
747 s | O=C1CC2(CCCC2)CC(=O)N1CCNCC1COc2ccccc2O1 (stereo unspecified)
829 s | CC(C)c1ccc(NC(=O)C2CCCN(c3cc(=O)n(C)c(=O)n3C)C2)cc1 (stereo unspecified)
1020 s | COc1ccc(C2=Nc3ccccc3N(CC(=O)Nc3cc(OC)ccc3OC)C(=O)C2)cc1
1270 s | COc1ccc(-n2ncc3c(=O)n(Cc4nc(-c5ccc(C(C)(C)C)cc5)no4)cnc32)cc1
894 s | CC(C)(C)NC(=O)N1CCCC1c1noc(COc2ccc(F)cc2)n1 (stereo unspecified)
571 s | CN(C)c1cc(N2CCCC(NC(=O)c3cccn3C)C2)ncn1 (stereo unspecified)
643 s | O=S1(=O)C[C@H](N2CCN(c3ccccn3)CC2)[C@@H](S(=O)(=O)c2ccc(Cl)cc2)C1
764 s | O=C(Nc1nnc(-c2cccs2)o1)c1cc(Cl)ccc1Cl
963 s | CCC(C)(C)NC(=O)CN1C(=O)CCCc2cc(S(=O)(=O)N3CCC(C)CC3)ccc21
902 s | Cc1csc(NC(=O)c2ccc(Br)cc2)n1
730 s | CC(C)S(=O)(=O)N1CCC(c2noc(-c3cccnc3)n2)C1 (stereo unspecified)
709 s | Cc1noc(C)c1S(=O)(=O)NCC1CCN(S(=O)(=O)C2CC2)CC1
881 s | O=C(Nc1ccc(F)cc1F)N1CCc2nc(-c3ccccc3)ncc2C1

SMILES | RP-LC retention time
COc1ccc(C(=O)c2c(C)n(CCN3CCOCC3)c3ccccc23)cc1 | 780 s
